Results reported in PubChem BioAssay (NCI).
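Five concentrations, 48 hours, 96-well plates. GI50 marks 50% less growth. The concentration for full growth arrest is given as TGI.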

Experiments:
Assay in all cases: inhibition of tumour cell growth, NCI panel, 48 h
[1] = tested on: U251 CNS
[2] = tested on: UO-31 renal
[3] = tested on: OVCAR-3 ovarian
[4] = tested on: NCI-H23 lung
[5] = tested on: SW-620 colon
[6] = tested on: SN12C renal
[7] = tested on: UACC-257 melanoma
[8] = tested on: SF-539 CNS
[9] = tested on: T-47D breast
[10] = tested on: HT29 colon
[11] = tested on: NCI-H460 lung
[12] = tested on: A549 NSCLC
[13] = tested on: HS 578T breast
[14] = tested on: SK-MEL-28 melanoma
[15] = tested on: SK-MEL-5 melanoma
[16] = tested on: OVCAR-5 ovarian
[17] = tested on: MOLT-4 leukemia
[18] = tested on: SF-295 CNS
[19] = tested on: 786-0 renal
[20] = tested on: HL-60(TB) leukemia
[21] = tested on: M14 melanoma
[22] = tested on: NCI-H226 lung
[23] = tested on: CCRF-CEM leukemia
[24] = tested on: DU-145 prostate
[25] = tested on: CAKI-1 renal
[26] = tested on: OVCAR-8 ovarian
[27] = tested on: NCI/ADR-RES ovarian
[28] = tested on: HOP-62 NSCLC
[29] = tested on: RXF 393 renal
[30] = tested on: MDA-MB-231 breast
[31] = tested on: SR leukemia
[32] = tested on: BT-549 breast
[33] = tested on: K-562 leukemia
[34] = tested on: MCF7 breast
[35] = tested on: PC-3 prostate
[36] = tested on: HCC-2998 colon
[37] = tested on: MALME-3M melanoma
[38] = tested on: HCT-15 colon
[39] = tested on: ACHN renal
[40] = tested on: HOP-92 NSCLC
[41] = tested on: SK-OV-3 ovarian
[42] = tested on: SNB-75 CNS
[43] = tested on: HCT-116 colon
[44] = tested on: OVCAR-4 ovarian
[45] = tested on: NCI-H522 lung
[46] = tested on: SF-268 CNS
[47] = tested on: IGROV1 ovarian
[48] = tested on: MDA-MB-435
[49] = tested on: LOX IMVI melanoma
[50] = tested on: RPMI-8226 leukemia
[51] = tested on: SK-MEL-2 melanoma
[52] = tested on: EKVX NSCLC
[53] = tested on: UACC-62 melanoma
[54] = tested on: SNB-19 CNS
[55] = tested on: COLO 205 colon
[56] = tested on: KM12 colon
[57] = tested on: A498 renal
[58] = tested on: TK-10 renal

In the case of `O=C1CCC(N2Cc3cc(CNC(=O)C(F)(F)c4ccc(Cl)cc4)ccc3C2=O)C(=O)N1` (centres undefined), the GI50 [1] is reported as > 100 µM, the TGI [1] is reported as > 100 µM and the GI50 [2] is reported as 0.32 µM. The TGI [2] was > 100 µM, the GI50 [3] was > 100 µM and the TGI [3] was > 100 µM. For the same compound, the GI50 [4] was > 100 µM, the TGI [4] was > 100 µM and the GI50 [5] was 0.11 µM. For the same compound, the TGI [5] was > 100 µM, the GI50 [6] was > 100 µM and the TGI [6] was > 100 µM. For the same compound, the GI50 [7] was > 100 µM, the TGI [7] was > 100 µM and the GI50 [8] was > 100 µM. The TGI [8] was > 100 µM, the GI50 [9] was 0.442 µM and the TGI [9] was > 100 µM. For the same compound, the GI50 [10] was > 100 µM, the TGI [10] was > 100 µM and the GI50 [11] was > 100 µM. The TGI [11] was > 100 µM, the GI50 [12] was > 100 µM and the TGI [12] was > 100 µM. For the same compound, the GI50 [13] was 1.71 µM, the TGI [13] was > 100 µM and the GI50 [14] was > 100 µM. The TGI [14] was > 100 µM, the GI50 [15] was 41.6 µM and the TGI [15] was > 100 µM. The GI50 [16] was > 100 µM, the TGI [16] was > 100 µM and the GI50 [17] was 0.0148 µM. For the same compound, the GI50 [18] was > 100 µM, the TGI [18] was > 100 µM and the GI50 [19] was > 100 µM. For the same compound, the TGI [19] was > 100 µM, the GI50 [20] was < 0.01 µM and the TGI [20] was 0.03 µM. For the same compound, the GI50 [21] was 38.4 µM, the TGI [21] was > 100 µM and the GI50 [22] was 1.75 µM. For the same compound, the TGI [22] was > 100 µM, the GI50 [23] was < 0.0156 µM and the GI50 [24] was > 100 µM. For the same compound, the TGI [24] was > 100 µM, the GI50 [25] was 40.5 µM and the TGI [25] was > 100 µM. The GI50 [26] was 0.243 µM, the TGI [26] was > 100 µM and the GI50 [27] was 29.2 µM. The TGI [27] was > 100 µM, the GI50 [28] was 3.02 µM and the TGI [28] was > 100 µM. For the same compound, the GI50 [29] was 19 µM, the TGI [29] was > 100 µM and the GI50 [30] was 0.0679 µM. For the same compound, the TGI [30] was > 100 µM, the GI50 [31] was 54.1 µM and the TGI [31] was > 100 µM. The GI50 [32] was 0.237 µM, the TGI [32] was > 74.2 µM and the GI50 [33] was > 96.3 µM. The TGI [33] was > 100 µM, the GI50 [34] was > 100 µM and the TGI [34] was > 100 µM. For the same compound, the GI50 [35] was 4.71 µM, the TGI [35] was > 100 µM and the GI50 [36] was 14 µM. For the same compound, the TGI [36] was > 100 µM, the GI50 [37] was 0.105 µM and the TGI [37] was > 27.9 µM. For the same compound, the GI50 [38] was 0.511 µM, the TGI [38] was > 100 µM and the GI50 [39] was > 100 µM. For the same compound, the TGI [39] was > 100 µM, the GI50 [40] was 0.0741 µM and the TGI [40] was > 100 µM. For the same compound, the GI50 [41] was > 100 µM, the TGI [41] was > 100 µM and the GI50 [42] was 0.152 µM. For the same compound, the TGI [42] was > 100 µM, the GI50 [43] was > 100 µM and the TGI [43] was > 100 µM. The GI50 [44] was 1.48 µM, the TGI [44] was > 100 µM and the GI50 [45] was > 66.1 µM. The TGI [45] was > 100 µM, the GI50 [46] was > 100 µM and the TGI [46] was > 100 µM. The GI50 [47] was 1.78 µM, the TGI [47] was > 100 µM and the GI50 [48] was > 100 µM. The TGI [48] was > 100 µM, the GI50 [49] was > 100 µM and the TGI [49] was > 100 µM. The GI50 [50] was > 54.7 µM, the TGI [50] was > 100 µM and the GI50 [51] was > 100 µM. The TGI [51] was > 100 µM, the GI50 [52] was > 100 µM and the TGI [52] was > 100 µM. For the same compound, the GI50 [53] was > 100 µM, the TGI [53] was > 100 µM and the GI50 [54] was > 87.1 µM. The TGI [54] was > 100 µM, the GI50 [55] was 0.721 µM and the TGI [55] was > 100 µM. The GI50 [56] was 67.1 µM, the TGI [56] was > 100 µM and the GI50 [57] was 8.17 µM. The TGI [57] was > 100 µM, the GI50 [58] was > 100 µM and the TGI [58] was > 100 µM.
